According to patent US4588740A, “Pharmaceutical methods using 4-aminoalkyl-2(3H)-indolones” (priority 1983, dated 1986):

What was measured:
[1] = target: T1, D2 -receptors (Oryctolagus cuniculus, UniProt G1T1Q0); test: perfused rabbit ear artery test
T1 construct: In the perfused rabbit ear artery test; from tissue; host or cells: perfused rabbit ear artery (receptors on sympathetic nerve terminals)

[2] = test system: cardio-accelerator nerve; test: cardio-accelerator nerve preparation in vivo in the dog
[3] = test system: perfused hind limb; test: perfused hind limb preparation in vivo in the dog
[4] = test system: DOCA-salt hypertensive rats; test: intravenous infusion in DOCA-salt hypertensive rats; assay type: in vivo, rat
Excerpt: (§1) Intravenous infusion of this species of this invention in the DOCA-salt hypertensive and spontaneously hypertensive rats reduced blood pressure and heart rate.

[5] = test system: spontaneously hypertensive rats; test: intravenous infusion in spontaneously hypertensive rats; assay type: in vivo, rat
Excerpt: as §1

[6] = test system: conscious DOCA salt hypertensive rats; test: oral dosing in conscious DOCA salt hypertensive rats; assay type: in vivo, rat; details: oral doses of 10 mg/kg
[7] = absorption from the gastrointestinal tract of rats; assay type: in vivo, rat; details: oral, compared with the 7-hydroxy congener
[8] = test system: presynaptic α-dopaminergic receptors (D2 -receptors); test: D2-agonist selectivity (general statement); details: peripheral
Excerpt: Otherwise speaking, the main focus of action is at the presynaptic α-dopaminergic receptors which may also be called "D2 -receptors." Activation of the D2 -receptors on the sympathetic nerve terminals inhibits the release of norepinephrine, thereby, promoting vasodilation, among other beneficial cardiovascular actions and decreasing sympathetic side-effects caused by norepinephrine release in certain abnormal cardiovascular conditions.

T1 sequence (G1T1Q0 1-443): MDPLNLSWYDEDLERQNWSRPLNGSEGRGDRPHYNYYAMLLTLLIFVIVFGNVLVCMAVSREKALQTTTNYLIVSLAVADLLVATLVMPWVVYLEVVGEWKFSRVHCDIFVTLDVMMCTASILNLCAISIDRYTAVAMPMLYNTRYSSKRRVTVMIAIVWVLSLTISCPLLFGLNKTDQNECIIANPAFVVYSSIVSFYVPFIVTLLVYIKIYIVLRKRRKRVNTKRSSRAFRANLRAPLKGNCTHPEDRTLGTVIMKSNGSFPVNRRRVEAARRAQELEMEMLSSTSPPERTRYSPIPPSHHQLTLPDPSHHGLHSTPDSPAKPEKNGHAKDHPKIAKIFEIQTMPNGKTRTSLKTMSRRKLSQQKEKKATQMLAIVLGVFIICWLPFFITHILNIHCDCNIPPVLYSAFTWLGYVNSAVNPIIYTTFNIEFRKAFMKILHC

With `CCCN(CCC)CCc1cccc2c1CC(=O)N2.Cl` [4-(2-di-n-propylaminoethyl)-2(3H)-indolone hydrochloride] the EC50 [1] was 72 nM, the activity in vivo [2] was “active” and the activity in vivo [3] was “active”. For the same compound, the tachyphylaxis [3] was “did not cause tachyphylaxis”, the blood pressure [4] was “reduced” and the heart rate [4] was “reduced”. The blood pressure [5] was “reduced”, the heart rate [5] was “reduced” and the anti-hypertensive effect [6] was “demonstrated an anti-hypertensive effect”. For the same compound, the “absorption from the gastrointestinal tract” value [7] was “more readily absorbed” and the D2-agonist selectivity [8] was “selective peripheral D2 -agonists”.
